How the values were obtained:
BRM = molecular target: T1, BRM (Homo sapiens, UniProt P51531); assay: ATPase catalytic activity assay (ADP-Glo), BRM; format: biochemical; settings: Table 10; for Ratio (BRG1 IC50 (μM) divided by BRM IC50 (μM)): ATPase assay, selectivity BRG1/BRM; for IC50: ATPase catalytic activity assay (ADP-Glo)
T1 construct: made in house; host or cells: High Five insect cells
Outline: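 Reaction holds 30 nM BRM, 20 nM salmon sperm DNA and 400 μM ATP in 20 mM Tris pH 8, 20 mM MgCl2, 50 mM NaCl, 0.1% Tween-20, 1 mM DTT. Incubated 1 h at room temperature. ADP formed is detected by ADP-Glo luminescence.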

BRG-1 = molecular target: T2, BRG-1 (Homo sapiens, UniProt P51532); assay: ATPase catalytic activity assay (ADP-Glo), BRG-1; format: biochemical; settings: Table 10, read-out: BRG1 IC50
T2 construct: made in house; host or cells: High Five insect cells
Outline: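 BRG-1 ATPase activity was measured in vitro by ADP-Glo. After the reaction, ADP-Glo Reagent depleted unconsumed ATP (40 min, room temperature), then Kinase Detection Reagent converted product ADP to ATP (60 min, room temperature), and luciferase luminescence was read.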

[1] = test system: parental MP41 and PKCi-resistant MP41 uveal melanoma cells; assay: 7-day growth inhibition assay in parental and PKC inhibitor-resistant MP41 cells; format: cell-based; settings: FIG. 7A
Procedure: Procedure: MP41 uveal melanoma cells were made resistant to the PKC inhibitor (LXS196; MedChemExpress), by long-term culture in growth media (see Table 9) containing increasing concentrations of the compound, up to 1 micromolar. After 3 months, sensitivity of the parental MP41 cells and the PKC inhibitor (PKCi)-resistant cells to the PKC inhibitor (LXS196) or the BRG1/BRM ATPase inhibitor (Compound B) was tested in a 7-day growth inhibition assay as described above in Example 6.

T1 sequence (P51531 whole entry): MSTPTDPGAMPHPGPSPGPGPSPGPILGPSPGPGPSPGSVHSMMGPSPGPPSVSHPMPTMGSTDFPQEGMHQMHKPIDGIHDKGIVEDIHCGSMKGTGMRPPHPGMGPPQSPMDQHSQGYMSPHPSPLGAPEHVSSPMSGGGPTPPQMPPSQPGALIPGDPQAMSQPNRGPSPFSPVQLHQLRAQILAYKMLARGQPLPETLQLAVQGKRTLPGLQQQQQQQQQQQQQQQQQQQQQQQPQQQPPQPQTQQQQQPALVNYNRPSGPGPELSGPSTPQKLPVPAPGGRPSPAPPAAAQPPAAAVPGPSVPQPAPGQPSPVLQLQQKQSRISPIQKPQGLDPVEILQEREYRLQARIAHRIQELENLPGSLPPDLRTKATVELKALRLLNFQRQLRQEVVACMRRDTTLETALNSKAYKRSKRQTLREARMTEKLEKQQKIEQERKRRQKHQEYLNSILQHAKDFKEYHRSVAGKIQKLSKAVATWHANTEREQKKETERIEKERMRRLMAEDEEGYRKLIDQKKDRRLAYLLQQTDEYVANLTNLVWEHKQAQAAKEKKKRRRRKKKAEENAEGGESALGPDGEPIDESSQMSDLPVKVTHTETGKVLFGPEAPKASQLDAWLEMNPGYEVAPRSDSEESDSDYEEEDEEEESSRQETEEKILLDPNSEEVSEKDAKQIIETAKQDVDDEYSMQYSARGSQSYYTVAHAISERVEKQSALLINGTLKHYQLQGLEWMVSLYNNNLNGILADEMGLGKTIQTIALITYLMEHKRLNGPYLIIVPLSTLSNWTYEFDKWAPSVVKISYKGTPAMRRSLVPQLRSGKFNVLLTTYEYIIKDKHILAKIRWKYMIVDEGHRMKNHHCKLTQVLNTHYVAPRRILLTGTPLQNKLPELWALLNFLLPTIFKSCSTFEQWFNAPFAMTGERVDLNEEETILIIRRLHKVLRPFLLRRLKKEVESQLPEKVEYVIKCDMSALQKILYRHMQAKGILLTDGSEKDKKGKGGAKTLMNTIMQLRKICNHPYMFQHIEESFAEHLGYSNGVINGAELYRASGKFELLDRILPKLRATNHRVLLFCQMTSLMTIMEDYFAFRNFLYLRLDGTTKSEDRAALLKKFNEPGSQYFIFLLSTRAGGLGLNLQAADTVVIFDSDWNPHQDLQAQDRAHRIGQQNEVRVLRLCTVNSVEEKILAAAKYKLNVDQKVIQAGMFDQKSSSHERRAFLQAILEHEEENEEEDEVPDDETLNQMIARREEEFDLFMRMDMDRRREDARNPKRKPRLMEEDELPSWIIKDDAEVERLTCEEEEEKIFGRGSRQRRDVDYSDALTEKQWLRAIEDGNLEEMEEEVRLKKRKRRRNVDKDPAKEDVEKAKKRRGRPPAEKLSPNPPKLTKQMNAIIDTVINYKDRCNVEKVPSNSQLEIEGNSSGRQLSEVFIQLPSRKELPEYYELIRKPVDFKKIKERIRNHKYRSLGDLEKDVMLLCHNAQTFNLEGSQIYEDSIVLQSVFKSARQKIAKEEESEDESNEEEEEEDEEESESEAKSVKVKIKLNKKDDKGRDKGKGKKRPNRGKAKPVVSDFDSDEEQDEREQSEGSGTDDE
T2 sequence (P51532 whole entry): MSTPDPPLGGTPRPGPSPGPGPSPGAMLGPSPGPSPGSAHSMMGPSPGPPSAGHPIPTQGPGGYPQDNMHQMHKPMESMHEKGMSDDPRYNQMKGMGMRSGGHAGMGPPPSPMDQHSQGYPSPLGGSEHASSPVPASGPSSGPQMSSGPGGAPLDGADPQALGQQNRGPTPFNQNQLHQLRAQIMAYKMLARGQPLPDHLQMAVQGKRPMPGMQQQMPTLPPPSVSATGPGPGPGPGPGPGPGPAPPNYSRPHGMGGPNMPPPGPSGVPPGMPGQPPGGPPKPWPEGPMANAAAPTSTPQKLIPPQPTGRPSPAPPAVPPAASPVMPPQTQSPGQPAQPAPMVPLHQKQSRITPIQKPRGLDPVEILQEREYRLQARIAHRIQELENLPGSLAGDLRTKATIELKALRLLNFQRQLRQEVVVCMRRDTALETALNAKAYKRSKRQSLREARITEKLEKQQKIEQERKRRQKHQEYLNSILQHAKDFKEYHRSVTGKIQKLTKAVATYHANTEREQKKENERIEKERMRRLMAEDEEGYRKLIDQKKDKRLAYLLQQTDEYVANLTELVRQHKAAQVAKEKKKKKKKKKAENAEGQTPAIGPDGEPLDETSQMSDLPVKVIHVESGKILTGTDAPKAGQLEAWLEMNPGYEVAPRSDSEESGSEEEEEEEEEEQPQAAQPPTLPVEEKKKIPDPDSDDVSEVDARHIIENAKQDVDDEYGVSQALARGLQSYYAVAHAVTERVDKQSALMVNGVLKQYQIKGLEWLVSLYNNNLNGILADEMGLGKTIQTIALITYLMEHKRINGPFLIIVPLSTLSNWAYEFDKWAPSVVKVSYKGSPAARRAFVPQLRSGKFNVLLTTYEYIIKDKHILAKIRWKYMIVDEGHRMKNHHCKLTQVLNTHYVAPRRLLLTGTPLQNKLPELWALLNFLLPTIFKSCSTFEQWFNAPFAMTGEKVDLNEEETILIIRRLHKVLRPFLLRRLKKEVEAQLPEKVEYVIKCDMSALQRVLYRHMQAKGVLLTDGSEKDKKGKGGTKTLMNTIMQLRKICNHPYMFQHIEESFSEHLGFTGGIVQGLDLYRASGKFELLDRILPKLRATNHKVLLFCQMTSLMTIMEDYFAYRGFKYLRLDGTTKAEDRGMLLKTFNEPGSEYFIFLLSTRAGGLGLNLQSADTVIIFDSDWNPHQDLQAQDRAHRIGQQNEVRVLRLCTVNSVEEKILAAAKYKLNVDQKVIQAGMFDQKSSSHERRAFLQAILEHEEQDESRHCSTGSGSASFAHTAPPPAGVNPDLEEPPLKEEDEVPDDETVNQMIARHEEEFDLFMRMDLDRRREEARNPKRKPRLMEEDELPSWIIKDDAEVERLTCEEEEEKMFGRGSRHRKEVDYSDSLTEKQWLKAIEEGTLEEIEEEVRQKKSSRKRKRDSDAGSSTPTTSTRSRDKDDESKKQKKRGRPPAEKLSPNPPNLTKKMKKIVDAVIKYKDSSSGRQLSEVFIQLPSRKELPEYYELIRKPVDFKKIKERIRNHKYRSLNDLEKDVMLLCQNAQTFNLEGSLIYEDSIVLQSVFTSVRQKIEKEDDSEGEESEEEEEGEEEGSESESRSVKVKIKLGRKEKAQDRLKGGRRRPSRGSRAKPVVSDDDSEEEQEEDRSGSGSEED

SMILES	Ratio (BRG1 IC50 (μM) divided by BRM IC50 (μM)) (BRM)	IC50 (BRM) [µM]	IC50 (BRG-1) [µM]	growth of PKCi-resistant cells relative to parental MP41 cell line [1]
O=C(NCc1cc2nc(N3CCCc4cc(C5COC5)cnc43)ccc2cn1)c1cc(F)c2c(c1)S(=O)(=O)[C@@H](F)CCO2 [Compound 293]	17.20	0.0098	0.168	–
COc1ccc(-c2ccc3cnc(CNC(=O)c4cc(Cl)c5c(c4)S(=O)(=O)[C@@H](F)COC5)cc3n2)nc1[C@@H]1CC1(F)F [Compound 294]	35.16	0.0098	0.344	–
COCCOc1nccc2c1CCCN2c1ccc2cnc(CNC(=O)c3cc(F)c4c(c3)S(=O)(=O)[C@@H](F)CCO4)cc2n1 [Compound 295]	16.68	0.0098	0.174	–
CN(C)c1ccnc2c1OCCN2c1ccc2cnc(CNC(=O)c3cc(F)c4c(c3)S(=O)(=O)[C@@H](F)CCO4)cc2n1 [Compound 296]	11.58	0.0099	0.114	–
O=C(NCc1cc2nc(-c3cccc(OC(F)F)c3)ccc2cn1)c1cc(F)c2c(c1)S(=O)(=O)[C@@H](F)COC2 [Compound 297, (2R)—N-[[2-[3-(difluoromethoxy)phenyl]-1,6-naphthyridin-7-yl]methyl]-2,6-difluoro-1,1-dioxo-3,5-dihydro-2H-4,1λ6-benzoxathiepine-8-carboxamide]	29.64	0.0099	0.266	–
COc1nc([C@@H](F)C(F)F)ccc1-c1ccc2cnc(CNC(=O)c3cc(F)c4c(c3)S(=O)(=O)[C@@H](F)CCO4)cc2n1 [Compound 298]	14.40	0.0099	0.143	–
C[C@@H]1CCN1c1cnc2c(c1)OCCN2c1ccc2cnc(CNC(=O)c3cc(Br)c4c(c3)S(=O)(=O)[C@@H](F)CCO4)cc2n1 [Compound 299]	29.29	0.0099	0.295	–
C[C@H]1C[C@H]1c1cnc2c(c1)OCCN2c1ccc2cnc(CNC(=O)c3cc(F)c4c(c3)S(=O)(=O)[C@@H](F)CCO4)cc2n1 [Compound 300]	11.89	0.0099	0.118	–
COc1nc(-c2ccc3cnc(CNC(=O)c4cc(Cl)c5c(c4)S(=O)(=O)[C@@H](F)COC5)cc3n2)ccc1C(F)F [Compound 301]	18.66	0.01	0.175	–
O=C(NCc1cc2nc(-c3cccc(C4CC4)n3)ccc2cn1)c1cc(Cl)c2c(c1)S(=O)(=O)[C@@H](F)COC2 [Compound 302]	30.11	0.01	0.348	–
O=C(NCc1cc2cc(N3CCOc4cc(C(F)F)cnc43)ccc2cn1)c1cc(F)c2c(c1)S(=O)(=O)[C@@H](F)CCO2 [Compound 303]	10.70	0.0101	0.108	–
O=C(NCc1cc2nc(N3CCOc4cc(F)c(C(F)F)nc43)ccc2cn1)c1cc(F)c2c(c1)S(=O)(=O)[C@@H](F)CCO2 [Compound 304]	15.65	0.0101	0.158	–
COc1cnc2c(c1)CCCN2c1ccc2cnc(CNC(=O)c3cc(F)c4c(c3)S(=O)(=O)[C@@H](F)CCO4)cc2c1 [Compound 305]	12.14	0.0103	0.125	–
COc1nc(C(F)F)ccc1-c1ccc2cnc(CNC(=O)c3cc(Cl)c4c(c3)S(=O)(=O)[C@@H](F)CCO4)cc2n1 [Compound 306]	32.74	0.0103	0.36	–
O=C(NCc1cc2nc(-c3cccc(OC(F)(F)F)n3)ccc2cn1)c1cc(F)c2c(c1)S(=O)(=O)[C@@H](F)COC2 [Compound 307]	20.42	0.0104	0.161	–
COc1nc([C@H](C)F)ccc1-c1ccc2cnc(CNC(=O)c3cc(Cl)c4c(c3)S(=O)(=O)[C@@H](F)CCO4)cc2n1 [Compound 308]	28.69	0.0104	0.329	–
O=C(NCc1cc2nc(N3CCOc4cc(C#CC5CC5)cnc43)ccc2cn1)c1cc(F)c2c(c1)S(=O)(=O)[C@@H](F)COC2 [Compound 309]	11.01	0.0105	0.115	–
CCOc1ccc(-c2ccc3cnc(CNC(=O)c4cc(F)c5c(c4)S(=O)(=O)[C@@H](F)CCO5)cc3n2)nc1[C@H]1CC1(F)F [Compound 313]	36.05	0.013	0.554	–
C#Cc1cc(C(=O)NCc2cc3nc(-c4cccc(N5C[C@@H](C)O[C@@H](C)C5)n4)ccc3cn2)cc2c1OCC[C@@H](F)S2(=O)=O [Compound 315]	43.60	0.0249	1.08	–
C[C@@H]1CN(c2cccc(-c3ccc4cnc(CNC(=O)c5cc(OC(F)F)c6c(c5)S(=O)(=O)[C@@H](F)CCO6)cc4n3)n2)C[C@H](C)O1 [Compound 316]	17.77	0.0183	0.325	–
C[C@@H]1CN(c2cccc(-c3ccc4cnc(CNC(=O)c5ccc6c(c5)S(=O)(=O)[C@@H](F)CCN6C)cc4n3)n2)C[C@H](C)O1 [Compound 318]	8.51	0.0123	0.105	–
C[C@@H]1CN(c2cccc(-c3ccc4cnc(CNC(=O)c5ccc6c(c5)S(=O)(=O)[C@H](F)CCN6C)cc4n3)n2)C[C@H](C)O1 [Compound 319]	25.94	0.192	4.99	–
COc1cccc(-c2ccc3cnc(CNC(=O)c4cc(Cl)c5c(c4)S(=O)(=O)[C@@H](F)CCO5)cc3n2)n1 [Compound 322]	30.39	0.0322	1.18	–
O=C(NCc1cc2nc(N3CCOc4cc(N5CC[C@H]5CF)cnc43)ccc2cn1)c1cc(Br)c2c(c1)S(=O)(=O)[C@@H](F)CCO2 [Compound 323]	13.90	0.0118	0.164	–
Cc1cc(C(=O)NCc2cc3nc(-c4ccc(OC(F)F)c(C5CC5)n4)ccc3cn2)cc2c1OCC[C@H](F)S2(=O)=O [Compound 324]	22.15	0.0161	0.357	–
C[C@@H]1CN(c2cccc(-c3ccc4cnc(CNC(=O)c5cc(F)c6c(c5)S(=O)(=O)[C@@H](F)CO6)cc4n3)n2)C[C@H](C)O1 [Compound 326]	28.75	0.122	3.51	–
O=C(NCc1cc2nc(-c3cccc(C4CC4)n3)ccc2cn1)c1cc(F)c2c(c1)S(=O)(=O)[C@@H](F)CCOC2 [Compound 327]	–	0.0035	0.0407	–
COc1nc([C@@H](C)C(F)F)ccc1-c1ccc2cnc(CNC(=O)c3cc(F)c4c(c3)S(=O)(=O)[C@@H](F)CCO4)cc2n1 [Compound 328]	29.97	0.0241	0.723	–
CC1(N)CCN(c2cccnc2NC(=O)c2nc(-c3ncccc3C(F)(F)F)cnc2N)CC1 [LXS196]	–	–	–	could tolerate growth at higher concentrations of LXS196

— patent US12139487B2, “Compounds and uses thereof” (Foghorn Therapeutics Inc., priority 2022, dated 2024)
